# Tests used:
# Type in all cases: cell-based
# [1] = system: Bacillus megaterium DSM 32963 cells; experiment: Lipidometabolomics (UPLC-MS/MS) of PUFA oxygenation products in supernatants of B. megaterium DSM 32963 with AvailOm; conditions: for abundance with dispersion formulation and/or bile acids compared to AvailOm alone (in words): B. megaterium DSM 32963 supernatants; for Extracellular concentration of PUFA oxygenation product: − bile acids, net of cell-free control
# Procedure: To investigate the amount of extracellularly appearing 18-HEPE, the B. megaterium DSM 32963 cells were cultivated as described in example 1. The cells were resuspended in 10 ml LBG or LBG containing 9.76 g/I FeSSIF-V2 (biorelevant.com), which is a mixture of taurocholate, phospholipids and other components designed to simulate bile surfactants, and 2 ml of supplements (table 2) were added, respectively. Additionally, the supplements were also added respectively to the different media in shaking flasks without cells and treated under the same conditions (controls). The 18-HEPE concentrations of the culture supernatants and controls were determined after incubation at 16 h, 30° C. and 200 rpm (table 4). […] Of note, the omega-3 4 18-HEPE conversion rate detected by this method is up to 0.075, which exceeds the basal content of 18-HEPE of 0.0005% in an esterified fish oil, disclosed by WO 2017/041094. More importantly, we discovered that the omega-3 lysine salt is converted by Bacillus megaterium strains to a multitude of (final) SPM products at even higher concentrations than 18-HEPE (see example 6), which is of physiological relevance.
# (§1) Bacterial supernatant samples were subjected to lipid extraction using RP-phase solid phase extraction and subsequently analyzed by ultra performance liquid chromatography ESI tandem mass spectrometry (UPLC-MS/MS) according to a published procedure. Under these conditions approximately 40 different LM, including 5-hydroxy-eicosapentaenoic acid 5-HEPE, 8-HEPE, 11-HEPE, 12-HEPE, 15-HEPE, 18-HEPE, 5-hydroxy-eicosatetraenoic acid (5-HETE), 8-HETE, 11-HETE, 12-HETE, 15-HETE, 4-hydroxy-DHA (4-HDHA), 7-HDHA, 13-HDHA, 14-HDHA, 17-HDHA, lipoxin A4 (LXA4), LXB4, resolvin E1 (RvE1), RvE3, resolvin D1-5 (RvD1-5), AT-RvD1, RvD2, protectin D1 (PD1), AT-PD1, maresin 1(MaR1), MaR2, plus 4 fatty acid substrates can be detected with a lower limit of detection of 1 pg.
# To investigate if Bacillus megaterium is capable of producing other PUFA oxygenation products in addition to 18-HEPE, a lipidometabolomics screening of supernatants from Bacillus megaterium strain 32963 cultured as in example 4 with AvailOm® was performed, either dissolved or in a dispersion formulation, with or without bile acids. Cell-free preparations of AvailOm® formulations were treated and analyzed in parallel and served as controls for non-enzymatic, spontaneous formation of oxygenation products. Values given in table 6 display net concentrations of products formed, i.e. after subtraction of control values. […] Concentrations of several SPM exceed by far the concentrations of SPM found in human plasma samples, which are typically in a range of ˜20-100 pg/ml. For comparison, human breast milk contains ˜6.000 pg/ml RvE1 and ˜10.000 pg/ml RvD1 [42].
# [2] = system: Bacillus megaterium strains; experiment: Screen of 47 additional Bacillus megaterium strains for SPM production capacity; conditions: 47 additional strains, AvailOm dispersion
# Description: as §1
# (§2) 47 additional Bacillus megaterium strains sourced from various habitats were screened for their SPM production capacity to determine if this is a general phenomenon of the species Bacillus megaterium and to detect strain-specific differences in types and quantities of SPM being produced. Cells were cultured as detailed in example 4, with dispersion formulation of AvailOm® serving as omega-3 fatty acid source. Cell-free preparations of AvailOm® were treated and analyzed in parallel and served as controls for non-enzymatic, spontaneous formation of oxygenation products. […]
# [3] = system: Bacillus megaterium DSM 33299; experiment: Lipidometabolomics of supernatants of B. megaterium DSM 33299 with AvailOm dispersion; conditions: Bacillus megaterium DSM 33299, AvailOm dispersion; net concentrations
# Description: as §1, §2
# [4] = system: Bacillus megaterium DSM 33296; experiment: Lipidometabolomics of supernatants of B. megaterium DSM 33296 with AvailOm dispersion; conditions: Bacillus megaterium DSM 33296, AvailOm dispersion; net concentrations
# Description: as §1, §2
Compound,abundance with dispersion formulation and/or bile acids compared to AvailOm alone (in words) [1],other results
"CC/C=C\CC(O)/C=C/C=C\C/C=C\C/C=C\CCCC(=O)O (stereo not shown) [15-HEPE, 15-hydroxy-eicosapentaenoic acid]",lower,–
12-hydroxy-eicosapentaenoic acid [12-HEPE],lower,–
9-hydroxyoctadecadienoic acid [9-HODE],lower,–
"CCC(O)/C=C/C=C\C/C=C\C/C=C\C/C=C\CCCC(=O)O (stereo not shown) [18-HEPE, 18-hydroxy-eicosapentaenoic acid]",lower,–
"CCC=CCC=CCC=CCC=CC=CC(O)CCCC(=O)O (stereo not shown) [5-HEPE, 5-hydroxy-eicosapentaenoic acid]",lower,–
"CC[C@H](O)C(O)/C=C/C=C/C=C\C/C=C\C/C=C\CCCC(=O)O (stereo partly shown) [RvE3, resolvin E3]",–,concentration in most of the strains [2]: up to 1.3 μg/ml
"CCCCC/C=C\C/C=C\C=C\C(O)C/C=C\CCCC(=O)O (stereo not shown) [8-HETE, 8-hydroxy-eicosatetraenoic acid]",lower,–
11-hydroxy-eicosapentaenoic acid [11-HEPE],lower,–
"CC/C=C\C[C@H](O)/C=C/C=C\C=C\C=C\[C@@H](O)[C@@H](O)C/C=C\CCC(=O)O [RvD1, resolvin D1]",–,Extracellular concentration of PUFA oxygenation product [3]: 4389 pg/mL; Extracellular concentration of PUFA oxygenation product ([1]; AvailOm dispersion): 1863 pg/mL; Extracellular concentration of PUFA oxygenation product ([1]; AvailOm): 598 pg/mL; Extracellular concentration of PUFA oxygenation product [4]: 3626 pg/mL
5-hydroxy-eicosatetraenoic acid [5-HETE],lower,–
